For experiment [1], the system named is Rhodotorula. Briefly: antimycotic activity, paper disk inhibition circle. It counts as cell-based. Conditions: 48 h, 8 mm paper disk, 3 mg/ml, 37° C., 2 days, read-out: Growth inhibition Rhodotorula. The method, then:
(§1) Referring to the antimycotic activity presented in Table 2, Cryptoccoccus neoformans and others were used as the test microbes, a paper disk (8 mm in diameter) was immersed in an aqueous solution of each test compound having a concentration of 3 mg/ml, air dried and placed on an agar medium, then incubation was conducted at 37° C. for 2 days, and the inhibition circle was measured. When the diameter of the inhibition circle was not larger than 8 mm, 8-10 mm, 10-20 mm, or larger than 20 mm, the activity was judged as -, ±, + or ++, respectively.

The test system of experiment [2] is Cryptococcus neoformans. Kind of experiment: antimycotic activity, paper disk inhibition circle. The class given is cell-based. Conditions: 48 h, 8 mm paper disk, 3 mg/ml, 37° C., 2 days, read-out: Growth inhibition Cryptococcus. The method, then:
as §1

Experiment [3] deals with Hamigera. Briefly: antimycotic activity, paper disk inhibition circle. The class given is cell-based. The note with it: 48 h; 8 mm paper disk, 3 mg/ml, 37° C., 2 days; read-out: Growth inhibition Hamigera. The protocol: as §1
Experiment [4] concerns Sclerotinia sclerotiorum. Briefly: antifungal activity, serial dilution method. The class given is cell-based. The note with it: Sclerotinia sclerotiorum (kidney bean stem rot); 1% glucose-bouillon agar.
For experiment [5], the system named is Pyricularia oryzae. Kind of experiment: microbe, parasite or virus in culture. It counts as cell-based.
The subject of experiment [6] is Tetrahymena pyriformis W strain. Kind of experiment: antiprotozoal activity, broth dilution method. It counts as cell-based. The note with it: 28° C., 44-48 hours, pH 7.0, read-out: Growth inhibition MIC Tetrahymena. (Broth dilution looks for growth in wells or tubes with falling amounts of substance.)
Experiment [7] has as its system Cochliobolus miyabeanus. Briefly: antifungal activity, serial dilution method. The class given is cell-based. The note with it: Bipolaris oryzae.
In experiment [8] the test system is Aspergillus niger. Briefly: antifungal activity, serial dilution method. It counts as cell-based.
Experiment [9] deals with Saccharomyces cerevisiae. Briefly: antifungal activity, serial dilution method. It counts as cell-based.
Experiment [10] deals with Botrytis cinerea. Briefly: antifungal activity, serial dilution method. The class given is cell-based. The note with it: Botrytis cinerea (gray mold); 1% glucose-bouillon agar.
Experiment [11] has as its system Colletotrichum lagenarium. Kind of experiment: antifungal activity, serial dilution method. It counts as cell-based. The note with it: Colletotrichum orbiculare.
For experiment [12], the system named is Penicillium. Kind of experiment: antifungal activity, serial dilution method. It counts as cell-based, Penicillium niger.
Experiment [13] relates to Leptosphaeria salvinii. Briefly: antifungal activity, serial dilution method. It counts as cell-based. The note with it: Nakataea oryzae.
Experiment [14] deals with human myelocytic leukemia cells HL-60. Briefly: growth inhibiting effect (IG effect) on HL-60. The class given is cell-based. Conditions: HL-60, 120 h, 5 day culture, read-out: IG effect on HL-60 GD50.
The mark [15] stands for this setting: Aspergillus niger (black mold), 1% glucose-bouillon agar, read-out: MIC.
The mark [16] stands for this setting: Saccharomyces cerevisiae (brewer's yeast), 1% glucose-bouillon agar, read-out: MIC.
[17] abbreviates: Colletotrichum lagenarium (cucumber anthracnose), 1% glucose-bouillon agar, read-out: MIC.
The mark [18] stands for this setting: Penicillium niger (blue mold), 1% glucose-bouillon agar, read-out: MIC.
Setting [19] is: Leptosphaeria salvinii (rice stem rot), 1% glucose-bouillon agar, read-out: MIC.

The structures appear in SMILES notation. In brackets after ≈: the same amount, converted by molar mass. Where two headings read alike, the source gives them in different places.

For the molecule `CCCCCCCCCCCCOCCOCCOCCOP(=O)(O)OCCN` [Example 13, 3,6,9-Trioxaheneicosanyl 2-aminoethyl phosphate], the zone of inhibition at 3000 µg/mL in experiment [1], in experiment [2] and in experiment [3] was 10 to 20 mm each time. The MIC worked out at 25 µg/mL in [4]; 100 µg/mL in [5]; 4 µg/mL in experiment [6]; 50 µg/mL in experiment [7]; 25 µg/mL in experiment [8] (setting [15]); 100 µg/mL in experiment [9] (setting [16]). In addition, the MIC in [10] stood at 50 µg/mL; in experiment [11] (setting [17]), 25 µg/mL.
As to `CCCCCCCCCCCCCOCCOCCOP(=O)([O-])OCC[n+]1ccccc1` [Example 28, 3,6-Dioxanonadecyl 2-pyridinioethyl phosphate], in [2], the zone of inhibition at 3000 µg/mL was greater than 20 mm. Moreover, the MIC in experiment [4] was 25 µg/mL; in experiment [5], 6.25 µg/mL; in experiment [12] (setting [18]) it was 12.5 µg/mL; in experiment [6], 4 µg/mL; in [7], 25 µg/mL; in [8] (setting [15]), 25 µg/mL. The MIC in [13] (setting [19]) worked out at 12.5 µg/mL; in [10], 12.5 µg/mL; in experiment [11], 6.25 µg/mL.
Regarding `CCCCCCCCCCCCCCOCCOCCOP(=O)([O-])OCC[N+](C)(C)C` [Example 26, 3,6-Dioxaeicosyl 2-trimethylammonioethyl phosphate], the zone of inhibition at 3000 µg/mL in experiment [2] fell in the range of 10 to 20 mm. Moreover, the MIC amounted to 50 µg/mL in experiment [4]; 3.12 µg/mL in experiment [5]; 6.25 µg/mL in experiment [12] (setting [18]); 0.2 µg/mL in [6]; 12.5 µg/mL in [7]; 12.5 µg/mL in experiment [8] (Aspergillus niger). The MIC in experiment [9] (setting [16]) came to 6.25 µg/mL; in [13] (setting [19]), 6.25 µg/mL; in experiment [10] it was 6.25 µg/mL; in [11] (setting [17]), 1.56 µg/mL.
Consider `CCCCCCCCCCCCOCCOCCOCCOCCOCCOP(=O)([O-])OCC[N+](C)(C)C` [Example 3, 3,6,9,12,15-Pentaoxaheptacosyl 2-trimethylammonioethyl phosphate], for which the zone of inhibition at 3000 µg/mL in experiment [2] is less than 8 mm. In addition, in [6], the MIC is greater than 4 µg/mL.
Turning to `CCCCCCCCCCCCOCCOCCOCCOP(=O)([O-])OCC[n+]1ccccc1` [Example 16, 3,6,9-Trioxaheneicosanyl 2-pyridinioethyl phosphate], the zone of inhibition at 3000 µg/mL in [1] was 10 to 20 mm; in experiment [2] it was greater than 20 mm; in [3], 10 to 20 mm. Also, the MIC in experiment [4] was 50 µg/mL; in experiment [5], 25 µg/mL; in [12] (setting [18]), 12.5 µg/mL; in experiment [6], greater than 4 µg/mL; in [7], 25 µg/mL; in experiment [8] (setting [15]), 25 µg/mL. Moreover, the MIC in [9] (setting [16]) was found to be 50 µg/mL; in [13] (setting [19]), 25 µg/mL; in experiment [10] it was 12.5 µg/mL; in [11] (setting [17]), 12.5 µg/mL.
With `CCCCCCCCCCCCOCCOCCOCCOCCOCCOP(=O)([O-])OCC[n+]1ccccc1` [Example 2, 3,6,9,12,15-Pentaoxaheptacosyl 2-pyridinioethyl phosphate], the zone of inhibition at 3000 µg/mL in [1] was 10 to 20 mm; in [2] it was 8 to 10 mm; in experiment [3], less than 8 mm. For the same molecule, in experiment [6], the MIC was greater than 4 µg/mL.
With `CCCCCCCCCCCCOCCOCCOP(=O)(O)OCCN` [Example 12, 2-[2-(Dodecyloxy)ethoxy]ethyl 2-aminoethyl phosphate], the zone of inhibition at 3000 µg/mL in experiment [1] was 10 to 20 mm; in experiment [2], greater than 20 mm; in experiment [3] it was 10 to 20 mm. The MIC in [4] was 25 µg/mL; in [5], 100 µg/mL; in [6], 2 to 4 µg/mL; in [7], 50 µg/mL; in [8] (setting [15]) it was 25 µg/mL; in experiment [9] (setting [16]) it was 100 µg/mL. Moreover, the MIC was 50 µg/mL in experiment [10] and 25 µg/mL in [11] (setting [17]). In experiment [14], the IC50 worked out at 5 µg/mL.
Consider `CCCCCCCCCCOCCOCCOP(=O)([O-])OCC[N+](C)(C)C` [Example 21, 3,6-Dioxahexadecyl 2-trimethylammonioethyl phosphate], for which the zone of inhibition at 3000 µg/mL in experiment [2] fell in the range of 10 to 20 mm. Besides, in experiment [6], the MIC was determined as 2 µg/mL.
Consider `CCCCCCCCCCCCCCOCCOCCOP(=O)(O)OCCN` [Example 24, 3,6-Dioxaeicosyl 2-aminoethyl phosphate], for which, in [2], the zone of inhibition at 3000 µg/mL was in the range of 10 to 20 mm. In addition, the MIC in [4] is 50 µg/mL; in experiment [5], 25 µg/mL; in experiment [12] (setting [18]), 6.25 µg/mL; in experiment [6], 1 to 2 µg/mL; in experiment [7] it was 100 µg/mL; in [8] (setting [15]) it was 12.5 µg/mL. Also, the results for the MIC in [13] (setting [19]), in [10] and in [11] (setting [17]) were greater than 100 µg/mL, 25 µg/mL and 25 µg/mL, respectively.
As for `CCCCCCCCCCCCOCCOCCOP(=O)([O-])OCC[n+]1ccc2ccccc2c1` [Example 32, 3,6-Dioxaoctadecyl 2-isoquinolinioethyl phosphate], the zone of inhibition at 3000 µg/mL in experiment [2] is greater than 20 mm. The MIC in experiment [6] was found to be 4 µg/mL.
As for `CCCCCCCCCCCCCOCCOCCOP(=O)([O-])OCC[N+](C)(C)C` [Ex.], the MIC in experiment [4] was found to be 100 µg/mL (≈ 220 µM); in [5], 6.25 µg/mL (≈ 13.8 µM); in experiment [12] (setting [18]) it was 12.5 µg/mL (≈ 27.6 µM); in experiment [7], 25 µg/mL (≈ 55.1 µM); in experiment [8] (setting [15]), 25 µg/mL (≈ 55.1 µM); in [9] (setting [16]), 12.5 µg/mL (≈ 27.6 µM). The MIC was 12.5 µg/mL (≈ 27.6 µM) in [13] (setting [19]), 25 µg/mL (≈ 55.1 µM) in experiment [10] and 3.12 µg/mL (≈ 6.88 µM) in experiment [11] (setting [17]).
`CCCCCCCC/C=C\CCCCCCCCOCCOCCOCCOCCOP(=O)(O)OCCN` [Example 10, 3,6,9,12-Tetraoxatriacont-21(Z)-enyl 2-aminoethyl phosphate]: the zone of inhibition at 3000 µg/mL in experiment [2] was in the range of 10 to 20 mm. Further, the IC50 in experiment [14] lay in the range of 1 to 2 µg/mL. The MIC in experiment [6] is greater than 4 µg/mL.
Consider `CCCCCCCCCCCCOCCOCCOP(=O)([O-])OCC[N+](C)(C)C` [Example 25, 3,6-Dioxaoctadecyl 2-trimethylammonioethyl phosphate], for which the zone of inhibition at 3000 µg/mL in experiment [2] was greater than 20 mm. Besides, the MIC was 25 µg/mL in [4]; 12.5 µg/mL in [5]; 12.5 µg/mL in experiment [12] (Penicillium); 0.4 µg/mL in [6]; 25 µg/mL in experiment [7]; 25 µg/mL in experiment [8] (setting [15]). For the same molecule, the MIC in experiment [9] (Saccharomyces cerevisiae) worked out at 12.5 µg/mL; in experiment [13] (setting [19]), 6.25 µg/mL; in [10] it was 6.25 µg/mL; in experiment [11] (setting [17]), 1.56 µg/mL.
Consider `CCCCCCCCCCCCOCCOCCOCCOCCOP(=O)(O)OCCN` [Example 14, 3,6,9,12-Tetraoxatetracosyanyl 2-aminoethyl phosphate], for which the zone of inhibition at 3000 µg/mL in experiment [1], in [2] and in [3] was 10 to 20 mm each time. Moreover, the MIC in experiment [6] amounted to 4 µg/mL.
In the case of `CCCCCCCCCCCCCCCCCCOCCOCCOP(=O)([O-])OCC[N+](C)(C)C` [Example 18, 3,6-Dioxatetracoxyl 2-trimethylammonioethyl phosphate], the zone of inhibition at 3000 µg/mL in experiment [2] was 10 to 20 mm. Further, the MIC in experiment [4] was greater than 100 µg/mL; in experiment [5] it was 12.5 µg/mL; in experiment [12] (setting [18]), greater than 100 µg/mL; in experiment [6], no less than 4 µg/mL; in [7], greater than 100 µg/mL; in [8] (setting [15]) it was greater than 100 µg/mL. Moreover, the MIC in experiment [13] is 12.5 µg/mL; in [10], 25 µg/mL; in experiment [11] (setting [17]), greater than 100 µg/mL.
For `CCCCCCCC/C=C\CCCCCCCCOCCOCCOP(=O)(O)OCCN` [Example 5, 3,6-Dioxatetracos-15(Z)-enyl 2-aminoethyl phosphate], the zone of inhibition at 3000 µg/mL in experiment [2] is 8 to 10 mm. For the same molecule, the MIC in experiment [6] was found to be 4 µg/mL.
For `CCCCCCCC/C=C\CCCCCCCCOCCOCCOP(=O)(O)OCCNC(C)(C)C` [Example 8, 3,6-Dioxatetracos-15(Z)-enyl 2-tert-butylaminoethyl phosphate], the MIC in experiment [6] is greater than 4 µg/mL.
With `CCCCCCCCCCOCCOCCOP(=O)(O)OCCN` [Example 22, 3,6-Dioxahexadecyl 2-aminoethyl phosphate], in experiment [2], the zone of inhibition at 3000 µg/mL is less than 8 mm. Besides, in [6], the MIC worked out at 4 µg/mL.
Taken in the same sequence, the figures for `CCCCCCCCCCCCCCOCCOCCOP(=O)([O-])OCC[n+]1ccccc1` [Example 34, 3,6-Dioxaeicosyl 2-pyridinioethyl phosphate] were 10 to 20 mm and 4 µg/mL.
As for `CCCCCCCCCCCCCOCCOCCOP(=O)([O-])OCC[N+](C)(C)C` [Example 29, 3,6-Dioxanonadecyl 2-trimethylammonioethyl phosphate], the zone of inhibition at 3000 µg/mL in experiment [2] is greater than 20 mm. The MIC in [6] was no more than 1 µg/mL.

(Values after US4551532A, “Ethylene glycol derivatives having anti-protozoan, anti-fungal and anti-tumor activity” (priority 1980, dated 1985).)
